Square brackets hold non-standard residues; d marks the D form. Ends that are not written are not given here.
How the values were obtained:
Format in all cases: cell-based
[1] = tested on: WM-239-A (metastatic melanoma); test: Melanoma growth reduction, 3H-thymidine incorporation (Example 4); settings: 2% tumor medium
Procedure: (§1) Melanoma cell lines WM-239-A (metastatic melanoma), WM278 (primary melanoma), WM793 (primary melanoma) and WM1158 (metastatic melanoma) were seeded in 24-well plates at a concentration of 7.5×10^4 cells/ml containing 2% tumor medium.
(§2) Peptides (SEQ ID NO:6) and D-(SEQ ID NO:6), in which each amino acid residue is a D-amino residue or a glycine residue, were frozen at -20° C. in […] aliquots at a concentration of 25 mg/ml. Each peptide was then dissolved in sterile distilled water at a dilution of 1:1,000 or 1:5,000 to provide peptide concentrations of 25 μg/ml or 5 μg/ml, respectively. The peptides at the 25 μg/ml or 5 μg/ml concentrations were then added to the plates containing the melanoma cells. The amount of ^3 H-thymidine incorporation for each well was taken on days 1, 3, and 7.

WM793 (primary melanoma) = test: as above; settings: 2% tumor medium
Procedure: as §1, §2

[2] = tested on: WM1158 (metastatic melanoma); test: as above; settings: 2% tumor medium
Procedure: as §1, §2

WM278 (primary melanoma) = test: as above; settings: 2% tumor medium
Procedure: as §1, §2

melanoma cell line WM852 [3] = test: Melanoma growth reduction (Example 5); settings: dose 25 μg/ml
Procedure: as §1, §2
(§3) Peptides (SEQ ID NO:10) and D-(SEQ ID NO:10), in which each amino acid is a D-amino acid residue, are tested for % growth reduction of melanoma cell lines WM852 (grown in 2% tumor media or PF media), WM983A (grown in 2% tumor media or PF media), WM793 (grown in 2% tumor media), and WM1985 (grown in PF media) according to the procedure of Example 4, except that only a concentration of 25 μg/ml was employed for (SEQ ID NO:10), and concentrations of 1.0, 2.5, 5.0, 10.0, and 25.0 μg/ml were employed for D-(SEQ ID NO:10).

[4] = tested on: melanoma cell line WM983A; test: Melanoma growth reduction (Example 5); settings: dose 25 μg/ml
Procedure: as §1, §2, §3

[5] = tested on: melanoma cell line WM1985; test: Melanoma growth reduction (Example 5); settings: dose 25 μg/ml, PF media
Procedure: as §1, §2, §3

melanoma cell line WM793 = test: Melanoma growth reduction (Example 5); settings: dose 25 μg/ml, 2% tumor media
Procedure: as §1, §2, §3

melanoma cell line WM164 = test: 3H-thymidine radioactive counts, melanoma cells (Example 6); settings: 2% tumor media
melanoma cell line WM8 = test: as above; settings: 2% tumor media
melanoma cell line WM115 = test: as above; settings: 2% tumor media
melanoma cell line WM973 = test: as above; settings: 2% tumor media
melanoma cell line WM852 [6] = test: as above; settings: 2% tumor media
[7] = tested on: melanoma cell line WM983B; test: as above; settings: 2% tumor media
[8] = tested on: melanoma cell line WM1791A; test: as above; settings: 2% tumor media
[9] = tested on: melanoma cell line WM239A; test: as above; settings: 2% tumor media
melanoma cell line WM35 = test: as above; settings: 2% tumor media
[10] = tested on: melanoma cell line WM902B; test: as above; settings: 2% tumor media
[11] = tested on: melanoma cell line WM1366; test: as above; settings: 2% tumor media
[12] = tested on: melanoma cell line SkMe123; test: as above; settings: 2% tumor media
[13] = tested on: melanoma cell line WM1158; test: as above; settings: 2% tumor media
[14] = tested on: melanoma cell line WM983A; test: as above; settings: 2% tumor media
melanoma cell line WM39 = test: as above; settings: 2% tumor media

Substance: (SEQ ID NO:6): peptide of SEQ ID NO:6, comparator not marked D; possibly the same as (SEQ ID NO:6)-NH2 (GIGKFLKSAKKFGKAFVKILNS; not fully specified) [reference compound]
- % Growth Reduction (7 days) WM239-A ([1]; dose 5 μg/ml): 0%
- % Growth Reduction (7 days) WM239-A ([1]; dose 25 μg/ml): 95.8%
- % Growth Reduction (7 days) WM793 (WM793 (primary melanoma); dose 5 μg/ml): 11.6%
- % Growth Reduction (7 days) WM793 (WM793 (primary melanoma); dose 25 μg/ml): 98.0%
- % Growth Reduction (7 days) WM1158 ([2]; dose 5 μg/ml): 0%
- % Growth Reduction (7 days) WM1158 ([2]; dose 25 μg/ml): 98.5%
- % Growth Reduction (7 days) WM-278 (WM278 (primary melanoma); dose 5 μg/ml): 0%
- % Growth Reduction (7 days) WM-278 (WM278 (primary melanoma); dose 25 μg/ml): 96.0%

Substance: (SEQ ID NO:10): peptide of SEQ ID NO:10, comparator not marked D; possibly the same as (SEQ ID NO:10)-NH2 (KKLLKKLKKLLKKL; not fully specified) [reference compound]
- % Growth Reduction (7 days) WM852-2% (melanoma cell line WM852 [3]; 2% tumor media): 0%
- % Growth Reduction (7 days) WM852-PF (melanoma cell line WM852 [3]; PF media): 54.0%
- % Growth Reduction (7 days) WM-983A-2% ([4]; 2% tumor media): 0%
- % Growth Reduction (7 days) WM983A-PF ([4]; PF media): 60.5%
- % Growth Reduction (7 days) WM1985-PF [5]: 43.0%
- % Growth Reduction (7 days) WM793-2% (melanoma cell line WM793): 8.3%

Substance: D-(SEQ ID NO:6): each amino acid residue is a D-amino residue or a glycine residue; possibly the same as D-(SEQ ID NO:6)-NH2 (G[dI]G[dK][dF][dL][dK][dS][dA][dK][dK][dF]G[dK][dA][dF][dV][dK][dI][dL][dN][dS]; not fully specified)
- Radioactive Counts WM164 (melanoma cell line WM164; dose 1 μg/ml): 158000
- Radioactive Counts WM164 (melanoma cell line WM164; dose 5 μg/ml): 4143
- Radioactive Counts WM164 (melanoma cell line WM164; dose 25 μg/ml): 331
- Radioactive Counts WM8 (melanoma cell line WM8; dose 1 μg/ml): 19226
- Radioactive Counts WM8 (melanoma cell line WM8; dose 5 μg/ml): 248
- Radioactive Counts WM8 (melanoma cell line WM8; dose 25 μg/ml): 99
- Radioactive Counts WM115 (melanoma cell line WM115; dose 1 μg/ml): 222000
- Radioactive Counts WM115 (melanoma cell line WM115; dose 5 μg/ml): 373
- Radioactive Counts WM115 (melanoma cell line WM115; dose 25 μg/ml): 263
- Radioactive Counts WM973 (melanoma cell line WM973; dose 1 μg/ml): 81675
- Radioactive Counts WM973 (melanoma cell line WM973; dose 5 μg/ml): 7284
- Radioactive Counts WM973 (melanoma cell line WM973; dose 25 μg/ml): 770
- Radioactive Counts WM852 (melanoma cell line WM852 [6]; dose 1 μg/ml): 169000
- Radioactive Counts WM852 (melanoma cell line WM852 [6]; dose 5 μg/ml): 2699
- Radioactive Counts WM852 (melanoma cell line WM852 [6]; dose 25 μg/ml): 554
- Radioactive Counts WM983B ([7]; dose 1 μg/ml): 225000
- Radioactive Counts WM983B ([7]; dose 5 μg/ml): 135
- Radioactive Counts WM983B ([7]; dose 25 μg/ml): 115
- Radioactive Counts WM1791A ([8]; dose 1 μg/ml): 5655
- Radioactive Counts WM1791A ([8]; dose 5 μg/ml): 1065
- Radioactive Counts WM1791A ([8]; dose 25 μg/ml): 456
- Radioactive Counts WM239A ([9]; dose 1 μg/ml): 38053
- Radioactive Counts WM239A ([9]; dose 5 μg/ml): 221
- Radioactive Counts WM239A ([9]; dose 25 μg/ml): 459
- Radioactive Counts WM35 (melanoma cell line WM35; dose 1 μg/ml): 47241
- Radioactive Counts WM35 (melanoma cell line WM35; dose 5 μg/ml): 3187
- Radioactive Counts WM35 (melanoma cell line WM35; dose 25 μg/ml): 360
- Radioactive Counts WM902B ([10]; dose 1 μg/ml): 49299
- Radioactive Counts WM902B ([10]; dose 5 μg/ml): 150
- Radioactive Counts WM902B ([10]; dose 25 μg/ml): 75
- Radioactive Counts WM1366 ([11]; dose 1 μg/ml): 288000
- Radioactive Counts WM1366 ([11]; dose 5 μg/ml): 1910
- Radioactive Counts WM1366 ([11]; dose 25 μg/ml): 1692
- Radioactive Counts SkMe123 ([12]; dose 1 μg/ml): 114846
- Radioactive Counts SkMe123 ([12]; dose 5 μg/ml): 2028
- Radioactive Counts SkMe123 ([12]; dose 25 μg/ml): 429
- % Growth Reduction (7 days) WM239-A ([1]; dose 5 μg/ml): 82.0%
- % Growth Reduction (7 days) WM239-A ([1]; dose 25 μg/ml): 96.3%
- % Growth Reduction (7 days) WM793 (WM793 (primary melanoma); dose 5 μg/ml): 95.6%
- % Growth Reduction (7 days) WM793 (WM793 (primary melanoma); dose 25 μg/ml): 98.4%
- % Growth Reduction (7 days) WM1158 ([2]; dose 5 μg/ml): 98.0%
- % Growth Reduction (7 days) WM1158 ([2]; dose 25 μg/ml): 98.8%
- % Growth Reduction (7 days) WM-278 (WM278 (primary melanoma); dose 5 μg/ml): 93.1%
- % Growth Reduction (7 days) WM-278 (WM278 (primary melanoma); dose 25 μg/ml): 96.1%
- Radioactive Counts WM1158 ([13]; dose 1 μg/ml): 131000
- Radioactive Counts WM1158 ([13]; dose 5 μg/ml): 884
- Radioactive Counts WM1158 ([13]; dose 25 μg/ml): 2108
- Radioactive Counts WM983A ([14]; dose 1 μg/ml): 335000
- Radioactive Counts WM983A ([14]; dose 5 μg/ml): 5598
- Radioactive Counts WM983A ([14]; dose 25 μg/ml): 313
- Radioactive Counts WM39 (melanoma cell line WM39; dose 1 μg/ml): 27635
- Radioactive Counts WM39 (melanoma cell line WM39; dose 5 μg/ml): 1308
- Radioactive Counts WM39 (melanoma cell line WM39; dose 25 μg/ml): 273
